Measurements from patent US20240287093A1, “HIGH ACTIVITY STING PROTEIN AGONIST” (ADLAI NORTYE BIOPHARMA CO., LTD., priority 2018, published 2024).

How the values were obtained:
Assay type in all cases: cell-based
STING variants (WT) = target: T1, STING variants (WT) (Homo sapiens, UniProt Q86WV6); experiment: SEAP reporter assay in HEK-Blue ISG KO-STING cells transfected with STING WT variant (Method 1); settings: 24 h
T1 construct: host or cells: HEK-Blue ISG KO-STING cells (Invivogen, hkb-kostg)
Excerpt: (§1) Example I: STING Variants (WT & HAQ) Activation by Compounds in HEK-Blue™ ISG KO-STING Cells (Method 1)
(§2) Activation of STING can be determined using a SEAP reporter assay in HEK-Blue™ ISG KO-STING cells (Invivogen, cat #hkb-kostg) transfected with plasmids expressing STING variants (WT & HAQ) (referred to WO2017/175147A1). STING variants (WT & HAQ) vector were constructed based on STING-232H vector (Origene, RC208418). GFP vector (VT2069) was bought from Youbio. The detailed protocol as follows: HEK-Blue™ ISG KO-STING cells were harvest and seeding into 96 well plate, the final cell number was 0.8×10^5 cells/well. Transfections were prepared using Lipofectamine 2000 (Invitrogen, Cat #11668-027) following the manufacturer's instructions (Lipo2000:DNA=1:10), 20 ul of transfection suspension containing 1 ng STING vector was added to cell culture plate and incubated at 37° C., 5% CO2 for 24 h. After 24 hours incubation, compounds were added at proper concentration, and the final DMSO concentration was 0.5%. After 24 h incubation, the supernatant was collected to detect SEAP signal using Great EscAPe SEAP chemiluminescence KIT (Clontech, cat #631738) and cells were collected to detect cell viability using CellTiter-Glo Luminescent Cell Viability Assay (Promega, cat #G7573) following the manufacturer's instructions. The data were described by the ratio of the stimulating signal of compounds to 0.5% DMSO.

STING variants (HAQ) = target: T2, STING variants (HAQ) (Homo sapiens, UniProt Q86WV6, G230A/R293Q/R71H); experiment: SEAP reporter assay in HEK-Blue ISG KO-STING cells transfected with STING HAQ variant (Method 1); settings: 24 h
T2 construct: host or cells: HEK-Blue ISG KO-STING cells (Invivogen, hkb-kostg)
Excerpt: as §1, §2

STING = target: T3, STING (Homo sapiens, UniProt Q86WV6, G230A/H232R/R293Q/R71H); experiment: IFNβ release from THP1 by STING activation (hIFNβ ELISA); settings: THP1 cells, 24 h, IFN-β in supernatant; inactive = IFNβ not detected at the maximum concentration of compounds
T3 construct: THP1 was purchased from National Collection of Authenticated Cell Cultures (Cat #TCHu 57); host or cells: THP1
Procedure: Example III: Compound Stimulate THP1 to Release IFNβ by STING Activation
In this assay, activation of STING by compounds was evaluated by detecting their ability to stimulate the secretion of IFN-β (interferon-beta) from THP1. THP1 was purchased from National Collection of Authenticated Cell Cultures (Cat #TCHu 57). The top dose of compounds was setted according to their solubility. First, Compounds were 3 times diluted with medium, 8-dose points in total. The final DMSO concentration was 0.2%. THP1 during the logarithmic phase was resuspended to 2×10^6 cells/ml in assay medium. The THP1-cell suspension was dispensed into a 96-well U bottom plate containing 50 ul of compound diluted in medium. After 24 h incubation at 37° C., 5% CO2, the supernatant was collected. The concentration of IFN-β in the supernatant was measured using a human IFNβ ELISA KIT (R&D, DY814-05). The data was fitted with GraphPad Prism or XLfit to calculate EC50 values.

[1] = compound concentration 125.3 μM
[2] = compound concentration 115.2 μM
[3] = compound concentration 31.25 μM, SEAP signal ratio to 0.5% DMSO

T2 sequence (Q86WV6 whole entry R71H/G230A/R293Q): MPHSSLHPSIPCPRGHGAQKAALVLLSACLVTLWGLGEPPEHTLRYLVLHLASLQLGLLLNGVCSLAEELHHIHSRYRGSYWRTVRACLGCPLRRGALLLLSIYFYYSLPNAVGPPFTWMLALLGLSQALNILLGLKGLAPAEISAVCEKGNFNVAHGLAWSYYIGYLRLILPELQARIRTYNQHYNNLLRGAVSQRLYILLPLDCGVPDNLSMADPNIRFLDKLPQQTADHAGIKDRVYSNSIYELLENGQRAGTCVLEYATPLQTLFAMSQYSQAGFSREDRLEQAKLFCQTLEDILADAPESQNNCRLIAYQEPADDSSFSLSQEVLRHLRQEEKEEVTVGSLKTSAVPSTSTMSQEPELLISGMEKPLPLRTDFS
T3 sequence (Q86WV6 whole entry R71H/G230A/H232R/R293Q): as the sequence (Q86WV6 whole entry R71H/G230A/R293Q) above, with H232R counted along it

| Fold change related to DMSO control, WT (STING variants (WT); compound concentration 25 μM) | Fold change related to DMSO control, HAQ (STING variants (HAQ); compound concentration 25 μM) | hIFNβ ELISA (EC50, μM) (STING) | Structure (SMILES) | other results |
| --- | --- | --- | --- | --- |
| 2.33 fold | 65.85 fold | inactive | CCn1nc(C)cc1C(=O)Nc1nc2cc(C(N)=O)cc3c2n1[C@@H](Cc1ccccc1)CO3 [Example 24, (S)-3-Benzyl-2-(1-ethyl-3-methyl-1H-pyrazole-5-carboxamido)-3,4-dihydro-5-oxa-1,2a-diazaacenaphthylene-7-carboxamide] | – |
| 2.00 fold | 63.91 fold | – | CC[C@H]1COc2cc(C(N)=O)cc3nc(NC(=O)c4cc(C)nn4CC)n1c23 [Example 26, (S)-3-Ethyl-2-(1-ethyl-3-methyl-1H-pyrazole-5-carboxamido)-3,4-dihydro-5-oxa-1,2a-diazaacenaphthylene-7-carboxamide] | EC50 (STING): 11.4 µM |
| – | – | inactive | CCn1nc(C)cc1C(=O)Nc1nc2cc(C(N)=O)cc3c2n1[C@@H](CCCCNC(=O)OCc1ccccn1)CO3 [Example 19, Pyridin-2-ylmethyl (S)-(4-(7-carbamoyl-2-(1-ethyl-3-methyl-1H-pyrazole-5-carboxamido)-3,4-dihydro-5-oxa-1,2a-diazaacenaphthylen-3-yl)butyl)carbamate] | Fold change related to DMSO control, WT (STING variants (WT); [1]): 1.65 fold; Fold change related to DMSO control, HAQ (STING variants (HAQ); [1]): 20.80 fold |
| 2.34 fold | 38.16 fold | inactive | CCn1nc(C)cc1C(=O)Nc1nc2cc(C(N)=O)cc3c2n1CC1(CC1)O3 [Example 28, 2-(1-Ethyl-3-methyl-1H-pyrazole-5-carboxamido)-3H-5-oxa-1,2a-diazaspiro[acenaphthylene-4,1′-cyclopropan]-1,2a^1(5a),6,8-tetraene-7-carboxamide] | – |
| – | – | inactive | CCn1nc(C)cc1C(=O)Nc1nc2cc(C(N)=O)cc3c2n1[C@@H](CCCNC(=O)OCc1ccccc1)CO3 [Example 1, Benzyl (S)-(3-(7-carbamoyl-2-(1-ethyl-3-methyl-1H-pyrazole-5-carboxamido)-3,4-dihydro-5-oxa-1,2a-diazaacenaphthylen-3-yl)propyl)carbamate] | Fold change related to DMSO control, WT (STING variants (WT); [3]): 3.08 fold; Fold change related to DMSO control, HAQ (STING variants (HAQ); [3]): 21.49 fold |
| 1.45 fold | 2.88 fold | inactive | CCn1nc(C)cc1C(=O)Nc1nc2cc(C(N)=O)cc3c2n1[C@@H](CCCNC(=O)OCc1cccnc1)CO3 [Example 32, Pyridin-3-ylmethyl (S)-(3-(7-carbamoyl-2-(1-ethyl-3-methyl-1H-pyrazole-5-carboxamido)-3,4-dihydro-5-oxa-1,2a-diazaacenaphthylen-3-yl)propyl)carbamate] | – |

Further lines, the compound ahead of its results:

| Structure (SMILES) | Fold change related to DMSO control, WT (STING variants (WT); compound concentration 25 μM) | Fold change related to DMSO control, HAQ (STING variants (HAQ); compound concentration 25 μM) | hIFNβ ELISA (EC50, μM) (STING) | other results |
| --- | --- | --- | --- | --- |
| CCn1nc(C)cc1C(=O)Nc1nc2cc(C(N)=O)cc3c2n1[C@@H](CCCNC(=O)COc1ccccc1)CO3 [Example 33, (S)-2-(1-ethyl-3-methyl-1H-pyrazole-5-carboxamido)-3-(3-(2-phenoxyacetamido)propyl)-3,4-dihydro-5-oxa-1,2a-diazaacenaphthylene-7-carboxamide] | 2.49 fold | 20.81 fold | inactive | – |
| CCn1nc(C)cc1C(=O)Nc1nc2cc(C(N)=O)cc3c2n1C[C@@H](C)O3 [Example 16, (R)-2-(1-Ethyl-3-methyl-1H-pyrazole-5-carboxamido)-4-methyl-3,4-dihydro-5-oxa-1,2a-diazaacenaphthylene-7-carboxamide] | – | – | inactive | Fold change related to DMSO control, WT (STING variants (WT); compound concentration 42.8 μM): 3.00 fold; Fold change related to DMSO control, HAQ (STING variants (HAQ); compound concentration 42.8 μM): 15.06 fold |
| CCn1nc(C)cc1C(=O)Nc1nc2cc(C(N)=O)cc3c2n1[C@@H](CCCNC(=O)OCc1ccccc1)CN3C [Example 43, Benzyl (S)-(3-(8-carbamoyl-2-(1-ethyl-3-methyl-1H-pyrazole-5-carbozamido)-6-methyl-5,6-dihydro-4H-imidazo[1,5,4-de]quinoxalin-4-yl)propyl)carbamate] | – | – | inactive | Fold change related to DMSO control, WT (STING variants (WT); compound concentration 2.5 μM): 2.02 fold; Fold change related to DMSO control, HAQ (STING variants (HAQ); compound concentration 5 μM): 23.88 fold |
| CCn1nc(C)cc1C(=O)Nc1nc2cc(C(N)=O)cc3c2n1CC(C)(C)CO3 [Example 27, 1-(1-Ethyl-3-methyl-1H-pyrazole-5-carboxamido)-8,8-dimethyl-8,9-dihydro-7H-6-oxa-2,9a-diazabenzo[cd]azulene-4-carboxamide] | 2.37 fold | 56.43 fold | – | EC50 (STING): 22.1 µM |
| CCn1nc(C)cc1C(=O)Nc1nc2cc(C(N)=O)cc3c2n1[C@@H](C(C)C)CO3 [Example 25, (S)-2-(1-Ethyl-3-methyl-1H-pyrazole-5-carboxamido)-3-isopropyl-3,4-dihydro-5-oxa-1,2a-diazaacenaphthylene-7-carboxamide] | 2.24 fold | 56.18 fold | – | EC50 (STING): > 16.7 µM |
| CCn1nc(C)cc1C(=O)Nc1nc2cc(C(N)=O)cc3c2n1[C@@H](CCNC(=O)COc1ccccc1)CO3 [Example 7, (S)-2-(1-Ethyl-3-methyl-1H-pyrazole-5-carboxamido)-3-(2-(2-phenoxyacetamido)ethyl)-3,4-dihydro-5-oxa-1,2a-diazaacenaphthylene-7-carboxamide] | – | – | inactive | Fold change related to DMSO control, WT (STING variants (WT); [2]): 2.70 fold; Fold change related to DMSO control, HAQ (STING variants (HAQ); [2]): 13.64 fold |
| CCn1nc(C)cc1C(=O)Nc1nc2cc(C(N)=O)cc3c2n1[C@H](CCCNC(=O)OCc1ccccc1)CO3 [Example 2, Benzyl (R)-(3-(7-carbamoyl-2-(1-ethyl-3-methyl-1H-pyrazole-5-carboxamido)-3,4-dihydro-5-oxa-1,2a-diazaacenaphthylen-3-yl)propyl)carbamate] | – | – | inactive | Fold change related to DMSO control, WT (STING variants (WT); compound concentration 77.9 μM): 2.25 fold; Fold change related to DMSO control, HAQ (STING variants (HAQ); compound concentration 77.9 μM): 6.46 fold |
| CCn1nc(C)cc1C(=O)Nc1nc2cc(C(N)=O)cc3c2n1[C@@H](C)CO3 [Example 12] | – | – | – | Fold change related to DMSO control, WT (STING variants (WT); compound concentration 52.6 μM): 3.31 fold; Fold change related to DMSO control, HAQ (STING variants (HAQ); compound concentration 52.6 μM): 27.37 fold; EC50 (STING): > 8.9 µM |
